From US20250270198A1, “PYRIDONE COMPOUNDS AS TRPA1 INHIBITORS” (D. E. Shaw Research, LLC, priority 2022, published 2025)
pIC50: −log10 of the molar value.

Experiments:
[1] = target: human TRPA1 channel (Homo sapiens (Human), UniProt O75762); assay: TRPA1 inhibitor activity, automated patch clamp (SyncroPatch); format: cell-based; details: CHO cells inducibly expressing human TRPA1, currents elicited by carvacrol (300 μM), holding potential −60 mV
Method: This assay was used to evaluate the disclosed compounds' inhibition activities against the human TRPA1 channel.
CHO cells inducibly expressing human TRPA1 were grown in DMEM containing 10% heat-inactivated FBS, 1 mM Sodium Pyruvate, 2 mM L-Glutamine, Zeocin (100 μg/ml) and Blasticidin (10 μg/ml). Expression was induced by addition of Doxycycline (1 μg/ml) 24 hours before experiments. Cells used for electrophysiology were plated in plastic culture flasks and grown at 37° C. in a 5% CO2-humidified tissue culture incubator per ChanPharm SOP. Stocks were maintained in cryogenic storage.
The cells were bathed in an extracellular solution containing 80 mM NaCl, 60 mM NMDG, 4 mM KCl, 2 mM CaCl2), 6 mM MgCl2, 5 mM Glucose. 10 mM HEPES, 3 mM HEDTA; pH adjusted to 7.4 with NaOH; 305-310 mOsm. All compounds were dissolved in DMSO at 30 mM. The internal solution contained 10 mM CsCl, 110 mM CsF, 10 mM NaCl, 10 mM EGTA, 10 mM HEPES, 4 mM MgATP, 0.25 mM NaGTP, 4 mM BAPTA; pH adjusted to 7.2 with CsOH; 285-290 mOsm. Compound stock solutions were freshly diluted with external solution to concentrations of 3 nM, 10 nM 30 nM, 100 nM, 300 nM, 1 μM, 3 μM, 10 μM, and 30 μM. The highest content of DMSO (0.1%) was present at 30 μM.
All experiments were performed at room temperature. Each cell acted as its own control. In preparation for a current recording session, intracellular solution (see above) was loaded into the intracellular compartments of the automated patch clamp platform SyncroPatch (Nanion) chip and the cell suspension was pipetted into the extracellular compartments. After establishment of a whole-cell configuration, membrane current recordings and compound application were enabled by means of the SyncroPatch. TRPA1 currents were elicited by application of carvacrol (300 μM) at a constant holding potential of −60 mV (see Table A below).
To determine IC50 values, AUC and peak values, obtained in the presence of a given compound concentration, were normalized to control values in absence of compound. Using DataControl384 (Nanion's proprietary software), IC50 values were derived by fitting the normalized data to the Hill equation.

[2] = target: hERG channel (Homo sapiens (Human), UniProt Q12809); assay: hERG activity, automated patch clamp (SyncroPatch); format: cell-based; details: CHO-K1 cells stably expressing hERG, tail current at −50 mV, compounds at 50 μM and 100 μM
Sequence of hERG channel (Q12809 whole entry): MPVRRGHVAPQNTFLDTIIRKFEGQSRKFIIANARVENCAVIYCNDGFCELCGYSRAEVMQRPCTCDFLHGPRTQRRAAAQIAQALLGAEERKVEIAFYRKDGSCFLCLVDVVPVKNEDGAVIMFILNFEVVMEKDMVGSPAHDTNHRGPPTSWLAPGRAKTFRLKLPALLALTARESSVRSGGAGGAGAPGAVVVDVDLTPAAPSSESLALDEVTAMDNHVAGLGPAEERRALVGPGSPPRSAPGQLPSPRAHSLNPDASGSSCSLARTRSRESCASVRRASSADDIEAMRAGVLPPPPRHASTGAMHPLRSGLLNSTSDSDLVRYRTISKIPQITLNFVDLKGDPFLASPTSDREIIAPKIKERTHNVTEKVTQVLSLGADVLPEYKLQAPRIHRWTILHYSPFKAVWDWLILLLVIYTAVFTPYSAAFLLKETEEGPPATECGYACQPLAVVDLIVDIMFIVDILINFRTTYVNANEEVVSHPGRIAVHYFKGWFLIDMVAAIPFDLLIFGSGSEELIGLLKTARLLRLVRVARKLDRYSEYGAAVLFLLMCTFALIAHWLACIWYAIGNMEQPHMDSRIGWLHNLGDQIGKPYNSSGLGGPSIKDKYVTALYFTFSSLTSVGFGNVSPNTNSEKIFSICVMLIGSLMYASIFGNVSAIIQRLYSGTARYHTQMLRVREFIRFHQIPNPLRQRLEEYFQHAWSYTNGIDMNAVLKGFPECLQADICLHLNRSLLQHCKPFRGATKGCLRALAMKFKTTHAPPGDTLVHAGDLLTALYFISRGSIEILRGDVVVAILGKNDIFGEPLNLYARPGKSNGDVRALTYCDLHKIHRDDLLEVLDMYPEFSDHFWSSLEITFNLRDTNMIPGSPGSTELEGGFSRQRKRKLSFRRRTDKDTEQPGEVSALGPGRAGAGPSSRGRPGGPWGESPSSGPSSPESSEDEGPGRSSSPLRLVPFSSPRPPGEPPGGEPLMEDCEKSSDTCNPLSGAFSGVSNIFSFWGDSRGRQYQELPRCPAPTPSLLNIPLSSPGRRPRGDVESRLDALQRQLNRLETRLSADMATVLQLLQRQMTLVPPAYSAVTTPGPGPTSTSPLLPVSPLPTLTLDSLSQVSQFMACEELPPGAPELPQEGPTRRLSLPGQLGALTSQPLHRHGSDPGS
Method: This assay was used to evaluate the disclosed compounds' inhibition activities against the hERG channel.
CHO-K1 cells stably expressing hERG were grown in Ham's F-12 Medium with Glutamine containing 10% heat-inactivated FBS, 1% Penicillin/Streptomycin, Hygromycin (100 μg/ml), and G418 (100 μg/ml). Cells used for electrophysiology were plated in plastic culture flasks and grown at 37° C. in a 5% CO2-humidified incubator per ChanPharm SOP. Stocks were maintained in cryogenic storage.
The cells were bathed in an extracellular solution containing 140 mM NaCl, 4 mM KCl, 2 mM CaCl2), 1 mM MgCl2, 5 mM Glucose, and 10 mM HEPES; pH adjusted to 7.4 with NaOH; 295-305 mOsm. The internal solution contained 10 mM KCl, 110 mM KF, 10 mM NaCl, 10 mM EGTA, 10 mM HEPES; pH adjusted to 7.2 with KOH; 280-285 mOsm. All compounds were dissolved in DMSO at 30 mM. Compound stock solutions were freshly diluted with external solution to concentrations of 50 μM and 100 μM. The highest content of DMSO […].
All experiments were performed at room temperature. Each cell acted as its own control. In preparation for a recording session, intracellular solution (see above) was loaded into the intracellular compartments of the automated patch clamp platform SyncroPatch (Nanion) chip and the cell suspension was pipetted into the extracellular compartments. After establishment of a whole-cell configuration, membrane current recordings, and compound application were enabled by means of the SyncroPatch. hERG currents were elicited by a voltage pulse pattern with fixed amplitudes (depolarization: +20 mV amplitude, 300 ms duration; repolarization: −50 mV, 300 ms duration) repeated at 3 s intervals from a holding potential of −80 mV.
Data acquisition and analysis were performed using DataControl384 (Nanion's proprietary software). To determine the (percentage) inhibition, the last single pulse in the pulse train (i.e., the repolarization step to −50 mV; tail current) at a given compound concentration was used. AUC and peak values, obtained in the presence of compound, were normalized to control values in the absence of compound.

Sequence of human TRPA1 channel (O75762 whole entry): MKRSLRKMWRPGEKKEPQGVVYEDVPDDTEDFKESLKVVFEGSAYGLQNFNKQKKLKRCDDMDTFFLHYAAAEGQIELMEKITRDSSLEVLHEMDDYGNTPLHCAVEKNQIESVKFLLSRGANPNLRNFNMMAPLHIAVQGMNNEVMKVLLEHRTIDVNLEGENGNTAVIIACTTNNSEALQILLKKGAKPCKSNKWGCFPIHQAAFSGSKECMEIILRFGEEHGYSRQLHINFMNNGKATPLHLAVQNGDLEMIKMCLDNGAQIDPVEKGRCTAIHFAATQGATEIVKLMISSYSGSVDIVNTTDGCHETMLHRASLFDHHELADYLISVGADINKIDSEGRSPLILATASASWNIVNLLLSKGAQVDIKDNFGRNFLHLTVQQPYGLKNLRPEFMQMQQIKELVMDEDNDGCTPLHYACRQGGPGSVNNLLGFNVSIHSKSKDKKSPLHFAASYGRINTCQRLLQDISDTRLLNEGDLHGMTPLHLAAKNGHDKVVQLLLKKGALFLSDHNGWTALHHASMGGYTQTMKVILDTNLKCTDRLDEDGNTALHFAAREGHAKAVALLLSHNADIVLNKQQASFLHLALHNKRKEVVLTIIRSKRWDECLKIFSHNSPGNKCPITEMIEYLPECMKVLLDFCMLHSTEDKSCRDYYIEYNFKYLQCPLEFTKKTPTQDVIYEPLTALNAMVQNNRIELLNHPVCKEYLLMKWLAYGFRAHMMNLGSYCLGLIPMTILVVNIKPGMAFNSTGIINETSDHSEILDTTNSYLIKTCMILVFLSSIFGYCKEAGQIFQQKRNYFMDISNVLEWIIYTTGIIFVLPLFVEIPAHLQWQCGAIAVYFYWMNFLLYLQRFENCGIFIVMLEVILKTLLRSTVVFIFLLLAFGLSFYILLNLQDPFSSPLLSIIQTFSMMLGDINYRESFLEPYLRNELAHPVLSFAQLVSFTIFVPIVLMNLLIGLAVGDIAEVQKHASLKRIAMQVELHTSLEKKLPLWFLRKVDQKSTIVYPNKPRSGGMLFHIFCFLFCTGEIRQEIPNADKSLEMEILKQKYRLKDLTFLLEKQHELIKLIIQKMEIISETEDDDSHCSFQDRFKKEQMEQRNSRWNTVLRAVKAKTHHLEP

Row | pIC50 ([1]; Table 4) | pIC50 ([1]; Table 5) | Compound | pIC50 ([2]; Table 4) | pIC50 ([2]; Table 5)
1 | > 6.00 |  | Cc1cc(C(N)=O)cn(Cc2nc(CCc3ccc(Cl)cc3)no2)c1=O [Compound 4, 1-({3-[2-(4-chlorophenyl)ethyl]-1,2,4-oxadiazol-5-yl}methyl)-5-methyl-6-oxopyridine-3-carboxamide] | < 4.30 | 
2 | > 6.52 |  | NC(=O)c1cc(Cl)c(=O)n(Cc2nc(CCc3ccc(Cl)cc3)no2)c1 [Compound 6, 5-chloro-1-((3-(4-chlorophenethyl)-1,2,4-oxadiazol-5-yl)methyl)-6-oxo-1,6-dihydropyridine-3-carboxamide] | > 4.30 | 
3 | > 5.00 |  | Cc1cc(-c2cn[nH]c2)cn(Cc2nc(CCc3ccc(Cl)cc3)no2)c1=O [Compound 8, 1-((3-(4-chlorophenethyl)-1,2,4-oxadiazol-5-yl)methyl)-3-methyl-5-(1H-pyrazol-4-yl)pyridin-2(1H)-one] | > 4.30 | 
4 | > 5.52 |  | Nc1ccn(Cc2nc(C[C@H](O)c3ccc(Cl)cc3)no2)c(=O)c1Cl [Compound 14, (S)-4-amino-3-chloro-1-((3-(2-(4-chlorophenyl)-2-hydroxyethyl)-1,2,4-oxadiazol-5-yl)methyl)pyridin-2(1H)-one] | < 4.30 | 
5 | > 6.00 |  | O=c1c(Cl)c(CO)ccn1Cc1nc(C[C@H](O)c2ccc(Cl)cc2)no1 [Compound 17, (S)-3-chloro-1-((3-(2-(4-chlorophenyl)-2-hydroxyethyl)-1,2,4-oxadiazol-5-yl)methyl)-4-(hydroxymethyl)pyridin-2(1H)-one] | < 4.30 | 
6 | > 6.00 |  | Cn1cc(-c2ccn(Cc3nc(C[C@H](O)c4ccc(Cl)cc4)no3)c(=O)c2Cl)cn1 [Compound 18, (S)-3-chloro-1-((3-(2-(4-chlorophenyl)-2-hydroxyethyl)-1,2,4-oxadiazol-5-yl)methyl)-4-(1-methyl-1H-pyrazol-4-yl)pyridin-2(1H)-one] | > 4.30 | 
7 | > 6.52 |  | O=c1c(Cl)nccn1Cc1nc(C[C@H](O)c2ccc(Cl)cc2)no1 [Compound 22, (S)-3-chloro-1-((3-(2-(4-chlorophenyl)-2-hydroxyethyl)-1,2,4-oxadiazol-5-yl)methyl)pyrazin-2(1H)-one] | > 4.30 | 
8 | > 6.00 |  | NC(=O)c1cn(Cc2nc(C[C@H](O)c3ccc(Cl)cc3)no2)c(=O)c(Cl)n1 [Compound 26, (S)-6-chloro-4-((3-(2-(4-chlorophenyl)-2-hydroxyethyl)-1,2,4-oxadiazol-5-yl)methyl)-5-oxo-4,5-dihydropyrazine-2-carboxamide] | < 4.30 | 
9 | > 6.52 |  | Cc1nc(Br)cn(Cc2nc(C[C@H](O)c3ccc(Cl)cc3)no2)c1=O [Compound 27, (S)-5-bromo-1-((3-(2-(4-chlorophenyl)-2-hydroxyethyl)-1,2,4-oxadiazol-5-yl)methyl)-3-methylpyrazin-2(1H)-one] | > 4.30 | 
10 | > 6.52 |  | Cc1nc(C(N)=O)cn(Cc2nc(C[C@H](O)c3ccc(Cl)cc3)no2)c1=O [Compound 29, 4-({3-[(2S)-2-(4-chlorophenyl)-2-hydroxyethyl]-1,2,4-oxadiazol-5-yl}methyl)-6-methyl-5-oxopyrazine-2-carboxamide] | < 4.30 | 
11 | > 6.52 |  | Cc1c(CN)ncn(Cc2nc(CCc3ccc(Cl)cc3)no2)c1=O [Compound 30, 6-(aminomethyl)-3-((3-(4-chlorophenethyl)-1,2,4-oxadiazol-5-yl)methyl)-5-methylpyrimidin-4(3H)-one] | > 4.30 | 
12 | > 6.52 |  | O=c1c(Cl)c(-c2cn[nH]c2)ncn1Cc1nc(C[C@H](O)c2ccc(Cl)cc2)no1 [Compound 35, (S)-5-chloro-3-((3-(2-(4-chlorophenyl)-2-hydroxyethyl)-1,2,4-oxadiazol-5-yl)methyl)-6-(1H-pyrazol-4-yl)pyrimidin-4(3H)-one] | > 4.30 | 
13 | > 7.00 |  | Cc1ncn(Cc2nc(C[C@H](O)c3ccc(Cl)cc3)no2)c(=O)c1Cl [Compound 36, (S)-5-chloro-3-((3-(2-(4-chlorophenyl)-2-hydroxyethyl)-1,2,4-oxadiazol-5-yl)methyl)-6-methylpyrimidin-4(3H)-one] | < 4.30 | 
14 |  | > 6.52 | O=c1c(Cl)c(CO)ncn1Cc1nc(C[C@H](O)c2ccc(Cl)cc2)no1 [Compound 54, (S)-5-chloro-3-((3-(2-(4-chlorophenyl)-2-hydroxyethyl)-1,2,4-oxadiazol-5-yl)methyl)-6-(hydroxymethyl)pyrimidin-4(3H)-one] |  | < 4.30
15 |  | > 7.00 | Cc1c(Cl)ncn(Cc2nc(C[C@H](O)c3ccc(Cl)cc3)no2)c1=O [Compound 58, (S)-6-chloro-3-((3-(2-(4-chlorophenyl)-2-hydroxyethyl)-1,2,4-oxadiazol-5-yl)methyl)-5-methylpyrimidin-4(3H)-one] |  | < 4.30
16 |  | > 7.00 | N#Cc1ncn(Cc2nc(C[C@H](O)c3ccc(Cl)cc3)no2)c(=O)c1Cl [Compound 63, 5-chloro-1-({3-[(2S)-2-(4-chlorophenyl)-2-hydroxyethyl]-1,2,4-oxadiazol-5-yl}methyl)-6-oxopyrimidine-4-carbonitrile] |  | > 4.30
17 |  | > 6.52 | Cc1c(-c2cn[nH]c2)ncn(Cc2nc(C[C@H](O)c3ccc(Cl)cc3)no2)c1=O [Compound 65, (S)-3-((3-(2-(4-chlorophenyl)-2-hydroxyethyl)-1,2,4-oxadiazol-5-yl)methyl)-5-methyl-6-(1H-pyrazol-4-yl)pyrimidin-4(3H)-one] |  | > 4.30
18 |  | > 6.52 | Nc1c(Cl)ncn(Cc2nc(C[C@H](O)c3ccc(Cl)cc3)no2)c1=O [Compound 66, (S)-5-amino-6-chloro-3-((3-(2-(4-chlorophenyl)-2-hydroxyethyl)-1,2,4-oxadiazol-5-yl)methyl)pyrimidin-4(3H)-one] |  | < 4.30
19 |  | > 7.00 | O=c1c(Br)c(Cl)ncn1Cc1nc(C[C@H](O)c2ccc(Cl)cc2)no1 [Compound 67, (S)-5-bromo-6-chloro-3-((3-(2-(4-chlorophenyl)-2-hydroxyethyl)-1,2,4-oxadiazol-5-yl)methyl)pyrimidin-4(3H)-one] |  | > 4.30
20 |  | > 6.52 | COc1ncn(Cc2nc(C[C@H](O)c3ccc(Cl)cc3)no2)c(=O)c1Cl [Compound 70, (S)-5-chloro-3-((3-(2-(4-chlorophenyl)-2-hydroxyethyl)-1,2,4-oxadiazol-5-yl)methyl)-6-methoxypyrimidin-4(3H)-one] |  | < 4.30
21 |  | > 7.00 | Nc1ncc(Cl)c(=O)n1Cc1nc(C[C@H](O)c2ccc(Cl)cc2)no1 [Compound 71, (S)-2-amino-5-chloro-3-((3-(2-(4-chlorophenyl)-2-hydroxyethyl)-1,2,4-oxadiazol-5-yl)methyl)pyrimidin-4(3H)-one] |  | < 4.30
